Tests used:
Format in all cases: cell-based, human
HeLa cells = assay: Annexin V-FITC/PI staining apoptosis assay (FACS); conditions: 72 h
Method: Given BAG3’s well-documented anti-apoptotic role, annexin V-FITC/PI staining was performed to evaluate the effects of compound 10 on cell apoptosis. […] Specifically, at 50 µM, 81.0 ± 3.89% of the cells were apoptotic (p < 0.001 vs. Ctrl); at 30 µM, 70.5 ± 4.56% were apoptotic (p < 0.01 vs. Ctrl); and at 20 µM, 51.5 ± 2.23% were apoptotic (p < 0.05 vs. Ctrl) (Figure 3A,B).
Apoptosis of the cells was assessed using the Annexin V-FITC/PI reagents. Hela cells (20 × 10^3) were seeded into 24-well plates and incubated for 72 h with compound 10. After treatment, the collected cells were resuspended in a 100 μL assay buffer, then 5 μL Annexin V-FITC and 1 μL PI reagents were added following an incubation for 20 min at RT according to the manufacturer’s protocol (Dead Cell Apoptosis Kits with Annexin V for Flow Cytometry, Thermo Fisher Scientific). The cells were analyzed with a Becton Dickinson FACScan flow cytometer using the Cell Quest software, version 4 (Franklin Lakes, NJ, USA). See Supplementary Materials for the data plots (Figure S54).

caspase 3 [1] = assay: Caspase 3 determination by flow cytometry; conditions: HeLa cells, 72 h, 50, 30 and 20 µM, vs control
Method: (§1) Furthermore, we investigated the expressions of caspases, key mediators of programmed cell death, in HeLa cells treated with compound 10 at the same concentrations used in the previous assays. […] To further confirm the pro-apoptotic mechanism induced by compound 10, Western blotting was performed to measure the expression and cleavage of caspase 3 [38, 39].
HeLa cells were seeded into 6-well plates (2.5 × 10^5 cells/well) and allowed to adhere for 24 h. The cells were then treated for 72 h with compound 10 at concentrations of 20, 30, and 50 µM, as well as with 0.1% DMSO negative (control), to assess caspase 3 and caspase 9 levels. After treatment, cells were collected, washed with PBS, and incubated at 4 °C first with a fixing buffer (containing 1% formaldehyde and 1% FBS in PBS) for 20 min, followed by permeabilization with fix perm solution (fixing buffer containing 0.1% Triton X-100) for 30 min. Next, the cells were incubated with anti-caspase 3 (1:500; SC-7272, Santa Cruz, CA, USA) and anti-caspase 9 (1:50; BS-0049R, Bioss Antibodies, Woburn, MA, USA) antibodies for 30 min at 4 °C. […] Cell fluorescence was then evaluated using a fluorescence-activated cell sorter (FACSscan, Becton Dickinson, Milan, Italy) and analyzed with Cell Quest software (4.0, Becton Dickinson, North Ryde, Australia). […]

caspase 3 [2] = assay: Western blot of caspase 3 expression and cleavage; conditions: HeLa cells, 72 h, 50, 30 and 20 µM
Method: as §1
The HeLa cell line was seeded in 60 mm culture dishes (20 × 104) and treated with compound 10 (50, 30, 20 μM) for 72 h. After treatments, the cells were washed twice, detached with a scraper, and centrifuged for 10 min (400× g, 4 °C) to remove debris. Total proteins were extracted by lysis buffer (20 mM Tris-HCl pH 7.5, 150 mM NaCl, 1 mM Na2EDTA, 1 mM EGTA, 2% NP-40, 1% sodium deoxycholate, 1× protease, and phosphatase inhibitor cocktail) for 30 min. […] Protein concentration was determined by the Bradford assay using bovine serum albumin as standard. […]
After washes in PBS/Tween-20 0.1% the appropriate anti-rabbit or anti-mouse (1:5000, Pierce, Thermo Fisher Scientific) peroxidase-linked secondary antibody was added for 1 h at room temperature. Antigen–antibody complexes were detected through enhanced chemiluminescence using LAS 4000 (GE Healthcare, Chicago, IL, USA) and a densitometry analysis of the autoradiographs was performed by using the ImageJ program, version 1.47 [38, 39]. […]

For `CC(C)Nc1c(-c2ccccc2Br)nc2ccc(Cl)cn12` [Compound 10, 2-(2-bromophenyl)-6-chloro-N-isopropylimidazo[1,2-a]pyridin-3-amine], the apoptotic cells (HeLa cells; 20 µM) was 51.5 ± 2.23%, the apoptotic cells (HeLa cells; 30 µM) was 70.5 ± 4.56% and the apoptotic cells (HeLa cells; 50 µM) was 81.0 ± 3.89%. The “activation of caspase 3” value (caspase 3 [1]) was “pronounced, dose-dependent activation”, the “expression of procaspase 3” value (caspase 3 [2]) was “increased expression of procaspase 3” and the “levels of cleaved caspase 3” value (caspase 3 [2]) was “elevated levels of cleaved caspase 3 in a dose-dependent manner”.

Reference: publication PMC11547576, “Identification of a New Promising BAG3 Modulator Featuring the Imidazopyridine Scaffold” (Molecules, 2024)
